Patent US20230212208A1, “Colour Tunable Luminescent Bidentate Platinum (II) Complexes for Probing Mismatch DNA” (THE UNIVERSITY OF HONG KONG, priority 2019, published 2023)
Where two headings read alike, the source gives them in different places.

Tests used:
[1] = test system: hairpin CC mismatched DNA with different adjacent base pairs; conditions: Pt(II) complex to DNA ratio 1.0
Description: Especially, the 5′- . . . […] GCA . . . -3′ (SEQ ID NO: 24), 5′- . . . GCC . . . -3′ (SEQ ID NO: 25), GCG . . . -3′ (SEQ ID NO: 26) and 5′- . . .

[2] = test system: TC hairpin mismatched DNA (SEQ ID NO: 6); conditions: 20 μM in Tris buffer, λex=410 nm, TC hairpin mismatch
Description: (§1) The emission increased around 3-fold for CA (SEQ ID NO: 5) and TC hairpin mismatched DNA (SEQ ID NO: 6), and 2-fold for AA hairpin mismatched DNA (SEQ ID NO: 7) (FIG. 5A).

[3] = test system: CA hairpin mismatched DNA (SEQ ID NO: 5); conditions: 20 μM in Tris buffer, λex=410 nm, CA hairpin mismatch
Description: as §1

[4] = test system: AA hairpin mismatched DNA (SEQ ID NO: 7); conditions: 20 μM in Tris buffer, λex=410 nm, AA hairpin mismatch
Description: as §1

[5] = test system: cognate matched DNA (CG match, SEQ ID NO: 3); conditions: 20 μM in Tris buffer pH 7.1, 1-fold matched DNA
Protocol: The emission spectra for detection of CC mismatched DNA and matched DNA were determined (FIGS. 2A and 2B).

Substance: Pt(II)(benzo[h]quinolone-1-benzyl-3-butylimidazolium bromide [PtCN2]
- emission intensity at 497 nm over matched DNA ([1]; CC mismatch 5'-ACC-3' (SEQ ID NO: 17) vs matched DNA): 5 fold
- emission intensity at 497 nm over matched DNA ([1]; CC mismatch 5'-GCA-3' (SEQ ID NO: 24) vs matched DNA): 5 fold
- emission intensity at 497 nm over matched DNA ([1]; CC mismatch 5'-GCC-3' (SEQ ID NO: 25) vs matched DNA): 5 fold
- emission intensity at 497 nm over matched DNA ([1]; CC mismatch 5'-GCG-3' (SEQ ID NO: 26) vs matched DNA): 5 fold
- emission response at 497 nm, higher than matched DNA ([1]; CC mismatch 5'-GCT-3' (SEQ ID NO: 27) vs matched DNA (SEQ ID NO: 32)): 6 fold
- emission increase at high-energy fingerprint spectrum [2]: around 3 fold
- emission increase at high-energy fingerprint spectrum [3]: around 3 fold
- emission increase at high-energy fingerprint spectrum [4]: ~2 fold
- emission enhancement at high-energy emission [5]: no significant emission enhancement
